# Measured values published in US6960597B2, “Aza-bridged-bicyclic amino acid derivatives as α4 integrin antagonists” (Orth-McNeil Pharmaceutical, Inc., priority 2000, dated 2005).
# Where two headings read alike, the source gives them in different places.
# Columns and labels:
# α4β1 integrin receptor = molecular target: T1, α4β1 integrin receptor (Homo sapiens, UniProt P05556+P13612); test: Ramos Cell Adhesion Assay (α4β1 Mediated Adhesion/VCAM-1); format: cell-based
# T1 construct: Ramos Cell Adhesion Assay (α4β1 Mediated Adhesion/VCAM-1); endogenous in cells; host or cells: Ramos cells
# Procedure: Ramos Cell Adhesion Assay (α4β1 Mediated Adhesion/VCAM-1)
# (§1) Immulon 96 well plates (Dynex) were coated with 100 μL recombinant hVCAM-1 at 4.0 μg/mL in 0.05 M NaCO3 buffer pH 9.0 overnight at 4° C. (R&D Systems). Plates were washed 3 times in PBS with 1% BSA and blocked for 1 h @ room temperature in this buffer. PBS was removed and compounds to be tested (50 μL) were added at 2× concentration. Ramos cells, (50 μL at 2×10^6/mL) labeled with 5 μM Calcein AM (Molecular Probes) for 1 h at 37° C., were added to each well and allowed to adhere for 1 h at room temperature. Plates were washed 3× in PBS+1% BSA and cells were lysed for 15 minutes in 100 μL of 1 M Tris pH 8.0 with 1% SDS. The plate was read at 485 nm excitation and 530 nm emission.
# human α4β7 = molecular target: T2, human α4β7 (Homo sapiens, UniProt P13612+P26010); test: α4β7-K562 Cell Adhesion Assay (α4β7 Mediated Adhesion/VCAM-1); format: cell-based
# T2 construct: expressed in transfected cells
# T2 sequence (P13612 34-1032): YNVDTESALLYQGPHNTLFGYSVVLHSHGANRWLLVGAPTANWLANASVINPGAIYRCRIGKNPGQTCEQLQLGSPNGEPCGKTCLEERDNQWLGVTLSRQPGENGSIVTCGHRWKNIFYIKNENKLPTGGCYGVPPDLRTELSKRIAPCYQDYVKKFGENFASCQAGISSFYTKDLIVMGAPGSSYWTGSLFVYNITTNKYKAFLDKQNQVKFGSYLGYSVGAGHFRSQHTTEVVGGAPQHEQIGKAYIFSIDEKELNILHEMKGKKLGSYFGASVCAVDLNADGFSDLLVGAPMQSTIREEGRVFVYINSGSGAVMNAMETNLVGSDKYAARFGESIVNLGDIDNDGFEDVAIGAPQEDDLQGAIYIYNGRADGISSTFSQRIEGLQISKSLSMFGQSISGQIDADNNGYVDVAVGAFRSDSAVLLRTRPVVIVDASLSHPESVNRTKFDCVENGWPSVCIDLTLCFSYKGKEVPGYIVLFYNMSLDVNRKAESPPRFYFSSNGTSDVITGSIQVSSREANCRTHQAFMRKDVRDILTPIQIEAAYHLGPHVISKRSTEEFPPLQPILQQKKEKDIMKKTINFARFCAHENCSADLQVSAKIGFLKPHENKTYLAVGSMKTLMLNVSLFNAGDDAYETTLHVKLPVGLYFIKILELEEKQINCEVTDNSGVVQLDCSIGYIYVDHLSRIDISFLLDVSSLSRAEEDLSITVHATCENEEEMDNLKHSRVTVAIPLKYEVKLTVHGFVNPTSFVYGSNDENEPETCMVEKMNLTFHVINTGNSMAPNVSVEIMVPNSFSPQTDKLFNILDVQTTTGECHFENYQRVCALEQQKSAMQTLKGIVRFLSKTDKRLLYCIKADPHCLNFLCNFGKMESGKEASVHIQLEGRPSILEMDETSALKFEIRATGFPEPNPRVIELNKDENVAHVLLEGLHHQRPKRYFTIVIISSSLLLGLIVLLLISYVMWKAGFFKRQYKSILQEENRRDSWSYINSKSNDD
# T2 sequence (P26010 20-798): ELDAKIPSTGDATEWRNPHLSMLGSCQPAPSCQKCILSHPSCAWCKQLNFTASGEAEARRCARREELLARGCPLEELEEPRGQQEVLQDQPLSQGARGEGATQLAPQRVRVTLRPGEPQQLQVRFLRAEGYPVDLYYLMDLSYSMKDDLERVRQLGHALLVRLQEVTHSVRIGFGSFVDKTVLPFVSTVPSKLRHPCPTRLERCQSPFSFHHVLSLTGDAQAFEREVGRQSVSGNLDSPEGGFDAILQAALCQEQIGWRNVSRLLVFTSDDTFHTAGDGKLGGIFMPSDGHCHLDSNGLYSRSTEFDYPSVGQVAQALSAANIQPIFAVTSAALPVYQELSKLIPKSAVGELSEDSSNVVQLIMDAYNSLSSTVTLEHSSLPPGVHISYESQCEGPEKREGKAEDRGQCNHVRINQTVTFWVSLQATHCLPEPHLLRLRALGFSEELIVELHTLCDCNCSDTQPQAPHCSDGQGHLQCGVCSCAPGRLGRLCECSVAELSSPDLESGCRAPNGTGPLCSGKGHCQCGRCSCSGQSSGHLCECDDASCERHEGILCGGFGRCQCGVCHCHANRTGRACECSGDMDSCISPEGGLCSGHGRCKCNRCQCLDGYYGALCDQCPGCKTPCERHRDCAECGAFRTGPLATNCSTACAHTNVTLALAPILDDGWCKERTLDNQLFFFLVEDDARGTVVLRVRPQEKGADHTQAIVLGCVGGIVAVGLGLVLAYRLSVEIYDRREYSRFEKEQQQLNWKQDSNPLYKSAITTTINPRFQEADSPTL
# Procedure: α4β7-K562 Cell Adhesion Assay (α4β7 Mediated Adhesion/VCAM-1)
# as §1, with “A stable cell line of K562 cells expressing human α4β7,” for “Ramos cells,”
# [1] = Table I, racemic mixtures and resolved (S,S) and (R,S) diastereomers, read-out: Antagonist IC50 Activity α4β1
# [2] = Table III, read-out: Inhibition of Binding of Ramos Cells to Immobilized VCAM-1 IC50
# [3] = Table I, racemic mixtures and resolved (S,S) and (R,S) diastereomers, read-out: Antagonist IC50 Activity α4β7
# [4] = Table IV, μM, read-out: Inhibition of Binding of K562 Cells to Immobilized VCAM-1 IC50
# [5] = Table IV, read-out: Inhibition of Binding of K562 Cells to Immobilized VCAM-1 IC50
# T1 sequence (P05556 21-798, one chain of several): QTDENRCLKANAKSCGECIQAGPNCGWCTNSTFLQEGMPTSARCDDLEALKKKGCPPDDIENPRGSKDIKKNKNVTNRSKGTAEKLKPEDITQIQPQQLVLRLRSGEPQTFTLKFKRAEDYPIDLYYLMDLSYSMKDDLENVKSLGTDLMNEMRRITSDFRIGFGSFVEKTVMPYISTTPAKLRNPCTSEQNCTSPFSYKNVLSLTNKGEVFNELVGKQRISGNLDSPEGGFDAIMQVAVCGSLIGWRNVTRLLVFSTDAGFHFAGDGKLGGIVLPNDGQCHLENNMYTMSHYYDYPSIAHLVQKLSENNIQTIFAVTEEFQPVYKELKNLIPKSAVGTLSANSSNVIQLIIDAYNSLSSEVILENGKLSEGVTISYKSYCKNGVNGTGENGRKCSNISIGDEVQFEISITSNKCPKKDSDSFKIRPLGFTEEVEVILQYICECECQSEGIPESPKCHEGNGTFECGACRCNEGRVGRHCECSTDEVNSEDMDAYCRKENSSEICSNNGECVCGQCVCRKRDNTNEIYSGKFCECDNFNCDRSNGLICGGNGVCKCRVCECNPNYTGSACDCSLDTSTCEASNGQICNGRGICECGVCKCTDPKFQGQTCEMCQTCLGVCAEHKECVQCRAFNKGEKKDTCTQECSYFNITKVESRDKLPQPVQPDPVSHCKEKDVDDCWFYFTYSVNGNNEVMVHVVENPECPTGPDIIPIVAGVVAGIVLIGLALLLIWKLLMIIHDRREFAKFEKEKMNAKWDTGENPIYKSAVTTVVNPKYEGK
SMILES,IC50 (α4β1 integrin receptor; [1]) [µM],IC50 (α4β1 integrin receptor; [2]) [µM],IC50 (human α4β7; [3]) [µM],"IC50 (α4β1 integrin receptor; Table III, μM, read-out: Inhibition of Binding of Ramos Cells to Immobilized VCAM-1 IC50) [µM]",IC50 (human α4β7; [4]) [µM],IC50 (human α4β7; [5]) [µM]
"Cc1ccc(C)n1-c1ccc(C[C@H](NC(=O)C2C3CCC(CC3)N2S(=O)(=O)c2ccccc2)C(=O)O)cc1 (stereo partly drawn) [Cpd 49, 4-(2,5-dimethyl-1H-pyrrol-1-yl)-N-[[2-(phenylsulfonyl)-2-azabicyclo[2.2.2]oct-3-yl]carbonyl]-L-phenylalanine]",–,–,–,> 5,> 10,–
"O=C(Nc1ccc(C[C@H](NC(=O)[C@@H]2C3CCC(CC3)N2S(=O)(=O)c2cccs2)C(=O)O)cc1)c1c(Cl)cncc1Cl [Cpd 71a, 4-[[(3,5-dichloro-4-pyridinyl)carbonyl]amino]-N-[[(3S)-2-(2-thienylsulfonyl)-2-azabicyclo[2.2.2]oct-3-yl]carbonyl]-L-phenylalanine]",0.006,0.36,0.033,–,–,–
"O=C(Nc1ccc(C[C@H](NC(=O)[C@H]2C3CCC(C3)N2S(=O)(=O)c2ccccc2)C(=O)O)cc1)c1c(Cl)cccc1Cl (stereo partly drawn) [Cpd 16b, 4-[(2,6-dichlorobenzoyl)amino]-N-[[(3R)-2-(phenylsulfonyl)-2-azabicyclo[2.2.1]hept-3-yl]carbonyl]-L-phenylalanine]",0.24,0.24,0.393,–,–,–
"Cc1ccc(S(=O)(=O)N2C3CCC(CC3)C2C(=O)N[C@@H](Cc2ccc(NC(=O)c3ccccc3C)cc2)C(=O)O)cc1 (stereo partly drawn) [Cpd 9, 4-[(2-methylbenzoyl)amino]-N-[[2-[(4-methylphenyl)sulfonyl]-2-azabicyclo[2.2.2]oct-3-yl]carbonyl]-(α^1S)-phenylalanine]",–,0.267,–,–,> 5,–
"COc1cccc(OC)c1C(=O)Nc1ccc(C[C@H](NC(=O)C2C3CCC(CC3)N2S(=O)(=O)c2ccc(C)cc2)C(=O)O)cc1 (stereo partly drawn) [Cpd 3, 4-[(2,6-dimethoxybenzoyl)amino]-N-[[2-[(4-methylphenyl)sulfonyl]-2-azabicyclo[2.2.2]oct-3-yl]carbonyl]-L-phenylalanine]",–,0.05,–,–,–,1.94
"CC(C)C(=O)Nc1ccc(C[C@H](NC(=O)[C@@H]2C3CCC(CC3)N2S(=O)(=O)c2ccccc2)C(=O)O)cc1 [Cpd 69, 4-[(2-methyl-1-oxopropyl)amino]-N-[[(3S)-2-(phenylsulfonyl)-2-azabicyclo[2.2.2]oct-3-yl]carbonyl]-L-phenylalanine]",–,0.455,–,–,–,1.67
"Cc1ccc(S(=O)(=O)N2C3CCC(CC3)C2C(=O)N[C@@H](Cc2ccc(NC(=O)c3ccccc3C(F)(F)F)cc2)C(=O)O)cc1 (stereo partly drawn) [Cpd 12, 4-[[2-(trifluoromethyl)benzoyl]amino]-N-[[2-[(4-methylphenyl)sulfonyl]-2-azabicyclo[2.2.2]oct-3-yl]carbonyl]-L-phenylalanine]",–,0.104,–,–,–,1.08

# Other lines, results leading:
IC50 (α4β1 integrin receptor; [1]) [µM],IC50 (α4β1 integrin receptor; [2]) [µM],IC50 (human α4β7; [3]) [µM],"IC50 (α4β1 integrin receptor; Table III, μM, read-out: Inhibition of Binding of Ramos Cells to Immobilized VCAM-1 IC50) [µM]",IC50 (human α4β7; [4]) [µM],IC50 (human α4β7; [5]) [µM],SMILES
0.124,0.124,0.21,–,–,–,"COc1cccc(OC)c1-c1ccc(C[C@H](NC(=O)C2C3CCC(CC3)N2S(=O)(=O)c2ccc(C)cc2)C(=O)O)cc1 (mixture of isomers) [Cpd 18, 4-(2,6-dimethoxyphenyl)-N-[[2-[(4-methylphenyl)sulfonyl]-2-azabicyclo[2.2.2]oct-3-yl]carbonyl]-L-phenylalanine]"
–,1.1,–,–,> 10,–,"Cc1ccc(S(=O)(=O)N2C3CCC(CC3)C2C(=O)N[C@@H](Cc2ccc(C#Cc3ccccc3)cc2)C(=O)O)cc1 (stereo partly drawn) [Cpd 24, 4-(phenylethynyl)-N-[[2-[(4-methylphenyl)sulfonyl]-2-azabicyclo[2.2.2]oct-3-yl]carbonyl]-L-phenylalanine]"
–,0.045,–,–,–,0.142,"Cc1ccc(S(=O)(=O)N2C3CCC(CC3)C2C(=O)N[C@@H](Cc2ccc(NC(=O)c3c(Cl)cccc3Cl)cc2)C(=O)O)cc1 (mixture of isomers) [Cpd 1, 4-[(2,6-dichlorobenzoyl)amino]-N-[[2-[(4-methylphenyl)sulfonyl]-2-azabicyclo[2.2.2]oct-3-yl]carbonyl]-L-phenylalanine]"
–,0.058,–,–,–,4.94,"Cc1ccc(S(=O)(=O)N2C3CCC(CC3)[C@H]2C(=O)N[C@@H](Cc2ccc(OCc3c(Cl)cccc3Cl)cc2)C(=O)O)cc1 [Cpd 29, 4-[(2,6-dichlorophenyl)methoxy]-N-[[(3S)-2-[[4-methylphenyl)sulfonyl]-2-azabicyclo[2.2.2]oct-3-yl]carbonyl]-L-phenylalanine]"
